Measured values: patent US9663473B2 (Actelion Pharmaceuticals Ltd, priority 2013, dated 2017)

These compounds were tested against T1, recombinant human ALX receptor (Homo sapiens, UniProt P25090) (assay: Intracellular calcium measurements (FLIPR), ALX receptor agonistic activity). Settings: HEK293-hALXR-Gα16 cells, Fluo-4 calcium signal, normalized to WKYMVm 10 nM.
T1 construct: expressed in transfected cells; host or cells: HEK293 (HEK293-hALXR-Gα16)
T1 sequence (P25090 1-351): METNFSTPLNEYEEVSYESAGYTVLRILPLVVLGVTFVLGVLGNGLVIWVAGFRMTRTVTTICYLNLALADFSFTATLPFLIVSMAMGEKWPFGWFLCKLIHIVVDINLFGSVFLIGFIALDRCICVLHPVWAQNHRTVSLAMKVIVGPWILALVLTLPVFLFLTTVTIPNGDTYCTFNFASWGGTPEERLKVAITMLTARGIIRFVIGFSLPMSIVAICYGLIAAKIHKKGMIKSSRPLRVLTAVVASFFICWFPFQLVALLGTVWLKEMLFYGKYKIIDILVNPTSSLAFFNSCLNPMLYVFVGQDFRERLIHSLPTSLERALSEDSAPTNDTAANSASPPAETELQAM
Assay type: cell-based
How it was run: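 HEK293 cells co-expressing human ALX receptor and Gα16 were loaded with 1 μM Fluo-4 AM for 60 min at 37° C., then exposed to serially diluted compounds on FLIPR Tetra. Peak fluorescence above baseline (ex 488/em 540 nm) was normalized to 10 nM WKYMVm as high control.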

SMILES	EC50
COC(=O)N1CCC(NC(=O)N[C@H](Cc2ccc(OC)cc2)c2nc3ccccc3[nH]2)C1 (stereo partly drawn) [Example 158, Methyl 3-(3-((R)-1-(1H-benzo[d]imidazol-2-yl)-2-(4-methoxyphenyl)ethyl)ureido)pyrrolidine-1-carboxylate]	158 nM
COc1ccc(C[C@@H](NC(=O)NCCC2CCN(C(C)=O)CC2)c2nc3ccccc3[nH]2)cc1 [Example 159, (R)-1-(1-(1H-Benzo[d]imidazol-2-yl)-2-(4-methoxyphenyl)ethyl)-3-(2-(1-acetylpiperidin-4-yl)ethyl)urea]	876 nM
COc1ccc(C[C@@H](NC(=O)NCCC2CCN(C)CC2)c2nc3ccccc3[nH]2)cc1 [Example 160, (R)-1-(1-(1H-Benzo[d]imidazol-2-yl)-2-(4-methoxyphenyl)ethyl)-3-(2-(1-methylpiperidin-4-yl)ethyl)urea]	151 nM
COC(=O)N1CC2CCC1CN2C(=O)N[C@H](Cc1ccc(OC)cc1)c1nc2ccccc2[nH]1 (stereo partly drawn) [Example 162, Methyl 5-(((R)-1-(1H-benzo[d]imidazol-2-yl)-2-(4-methoxyphenyl)ethyl)carbamoyl)-2,5-diazabicyclo[2.2.2]octane-2-carboxylate]	866 nM
COc1ccc(C[C@@H](NC(=O)NC23CCC(O)(CC2)CC3)c2nc3ccccc3[nH]2)cc1 [Example 166, (R)-1-(1-(1H-Benzo[d]imidazol-2-yl)-2-(4-methoxyphenyl)ethyl)-3-(4-hydroxybicyclo[2.2.2]octan-1-yl)urea]	2.1 nM
COc1ccc(C[C@@H](NC(=O)N2CC3CCC2CN3C)c2nc3ccccc3[nH]2)cc1 (stereo partly drawn) [Example 168, N—((R)-1-(1H-Benzo[d]imidazol-2-yl)-2-(4-methoxyphenyl)ethyl)-5-methyl-2,5-diazabicyclo[2.2.2]octane-2-carboxamide]	87 nM
COc1ccc(CC(NC(=O)Nc2ccccc2)c2nc3ccccc3[nH]2)cc1 (centres unmarked) [Example 169, 1-(1-(1H-Benzo[d]imidazol-2-yl)-2-(4-methoxyphenyl)ethyl)-3-phenylurea]	51 nM
COc1ccc(C[C@@H](NC(=O)NC23CCN(CC2)CC3)c2nc3ccccc3[nH]2)cc1 [Example 170, (R)-1-(1-(1H-Benzo[d]imidazol-2-yl)-2-(4-methoxyphenyl)ethyl)-3-(quinuclidin-4-yl)urea]	76 nM
COc1ccc(C[C@@H](NC(=O)N[C@H]2CC[C@](C)(O)CC2)c2nc3ccccc3[nH]2)cc1 [Example 173, 1-((R)-1-(1H-Benzo[d]imidazol-2-yl)-2-(4-methoxyphenyl)ethyl)-3-(trans-4-hydroxy-4-methylcyclohexyl)urea]	3.1 nM
COc1ccc(C[C@@H](NC(=O)NC2CCNC(=O)C2)c2nc3ccccc3[nH]2)cc1 (stereo partly drawn) [Example 174, 1-((R)-1-(1H-Benzo[d]imidazol-2-yl)-2-(4-methoxyphenyl)ethyl)-3-(2-oxopiperidin-4-yl)urea]	288 nM
COc1ccc(CC(NC(=O)NC2CCCC2)c2nc3ccccc3[nH]2)cc1F (centres unmarked) [Example 175, 1-(1-(1H-Benzo[d]imidazol-2-yl)-2-(3-fluoro-4-methoxyphenyl)ethyl)-3-cyclopentylurea]	209 nM
COc1ccc(CC(NC(=O)NC2CC(C)(C)NC(C)(C)C2)c2nc3ccccc3[nH]2)cc1F (centres unmarked) [Example 176, 1-(1-(1H-Benzo[d]imidazol-2-yl)-2-(3-fluoro-4-methoxyphenyl)ethyl)-3-(2,2,6,6-tetramethylpiperidin-4-yl)urea]	58 nM
COc1ccc(C[C@@H](NC(=O)Nc2cccc(OC)c2)c2nc3ccccc3[nH]2)cc1 [Example 177, (R)-1-(1-(1H-Benzo[d]imidazol-2-yl)-2-(4-methoxyphenyl)ethyl)-3-(3-methoxyphenyl)urea]	247 nM
COc1ccc(C[C@@H](NC(=O)Nc2ccccc2OC)c2nc3ccccc3[nH]2)cc1 [Example 178, (R)-1-(1-(1H-Benzo[d]imidazol-2-yl)-2-(4-methoxyphenyl)ethyl)-3-(2-methoxyphenyl)urea]	699 nM
COc1ccc(C[C@@H](NC(=O)N[C@H]2CC[C@H](O)CC2)c2nc3cc(Br)ccc3[nH]2)cc1 [Example 179, 1-((R)-1-(5-Bromo-1H-benzo[d]imidazol-2-yl)-2-(4-methoxyphenyl)ethyl)-3-(trans-4-hydroxycyclohexyl)urea]	1.1 nM
COc1ccc(C[C@@H](NC(=O)NC2CCCN(CCF)C2)c2nc3ccccc3[nH]2)cc1 (stereo partly drawn) [Example 180, 1-((R)-1-(1H-Benzo[d]imidazol-2-yl)-2-(4-methoxyphenyl)ethyl)-3-(1-(2-fluoroethyl)piperidin-3-yl)urea]	59 nM
COc1ccc(C[C@@H](NC(=O)NC2CCN(CCF)CC2)c2nc3ccccc3[nH]2)cc1 [Example 181, (R)-1-(1-(1H-Benzo[d]imidazol-2-yl)-2-(4-methoxyphenyl)ethyl)-3-(1-(2-fluoroethyl)piperidin-4-yl)urea]	88 nM
COc1ccc(C[C@@H](NC(=O)NC2CCN(CC(F)F)CC2)c2nc3ccccc3[nH]2)cc1 [Example 182, (R)-1-(1-(1H-Benzo[d]imidazol-2-yl)-2-(4-methoxyphenyl)ethyl)-3-(1-(2,2-difluoroethyl)piperidin-4-yl)urea]	40 nM
COc1ccc(C[C@@H](NC(=O)N[C@H]2CC[C@@H](O)CC2)c2nc3ccccc3[nH]2)cc1 [Example 183, 1-((R)-1-(1H-Benzo[d]imidazol-2-yl)-2-(4-methoxyphenyl)ethyl)-3-(cis-4-hydroxycyclohexyl)urea]	58 nM
COc1ccc(C[C@@H](NC(=O)NC2CCCN(CC(F)F)C2)c2nc3ccccc3[nH]2)cc1 (stereo partly drawn) [Example 186, 1-((R)-1-(1H-Benzo[d]imidazol-2-yl)-2-(4-methoxyphenyl)ethyl)-3-(-1-(2,2-difluoroethyl)piperidin-3-yl)urea]	29 nM
COc1ccc(C[C@@H](NC(=O)N[C@H]2CC[C@@](C)(O)CC2)c2nc3ccccc3[nH]2)cc1 [Example 189, 1-((R)-1-(1H-Benzo[d]imidazol-2-yl)-2-(4-methoxyphenyl)ethyl)-3-(cis-4-hydroxy-4-methylcyclohexyl)urea]	19 nM
O=C(N[C@H](Cc1ccc(C(F)(F)F)cc1)c1nc2ccccc2[nH]1)N[C@H]1CC[C@H](O)CC1 [Example 190, 1-((R)-1-(1H-Benzo[d]imidazol-2-yl)-2-(4-(trifluoromethyl)phenyl)ethyl)-3-(trans-4-hydroxycyclohexyl)urea]	19 nM

More lines, now with the values ahead:

EC50	SMILES
31 nM	Cc1ccc(C[C@@H](NC(=O)N[C@H]2CC[C@H](O)CC2)c2nc3ccccc3[nH]2)cc1 [Example 191, 1-((R)-1-(1H-Benzo[d]imidazol-2-yl)-2-(p-tolyl)ethyl)-3-(trans-4-hydroxycyclohexyl)urea]
0.1 nM	COc1ccc(C[C@@H](NC(=O)NC23CCC(O)(CC2)CC3)c2nc3ccc(Cl)cc3[nH]2)cc1 [Example 192, (R)-1-(1-(6-Chloro-1H-benzo[d]imidazol-2-yl)-2-(4-methoxyphenyl)ethyl)-3-(4-hydroxybicyclo[2.2.2]octan-1-yl)urea]
1.8 nM	COc1ccc(CC(NC(=O)NC23CCC(O)(CC2)CC3)c2nc3ccccc3[nH]2)cc1F (centres unmarked) [Example 193, 1-(1-(1H-Benzo[d]imidazol-2-yl)-2-(3-fluoro-4-methoxyphenyl)ethyl)-3-(4-hydroxybicyclo[2.2.2]octan-1-yl)urea]
1.9 nM	O=C(N[C@H](Cc1ccc(Br)cc1)c1nc2ccc(Cl)cc2[nH]1)NC12CCC(O)(CC1)CC2 [Example 194, (R)-1-(2-(4-Bromophenyl)-1-(6-chloro-1H-benzo[d]imidazol-2-yl)ethyl)-3-(4-hydroxybicyclo[2.2.2]octan-1-yl)urea]
1.1 nM	O=C(N[C@H](Cc1ccc(Br)cc1)c1nc2ccc(F)cc2[nH]1)NC12CCC(O)(CC1)CC2 [Example 195, (R)-1-(2-(4-Bromophenyl)-1-(6-fluoro-1H-benzo[d]imidazol-2-yl)ethyl)-3-(4-hydroxybicyclo[2.2.2]octan-1-yl)urea]
0.8 nM	COc1ccc(C[C@@H](NC(=O)NC23CCC(O)(CC2)CC3)c2nc3ccc(F)cc3[nH]2)cc1 [Example 196, (R)-1-(1-(6-Fluoro-1H-benzo[d]imidazol-2-yl)-2-(4-methoxyphenyl)ethyl)-3-(4-hydroxybicyclo[2.2.2]octan-1-yl)urea]
50 nM	COc1ccc(C[C@@H](NC(=O)NCC(C)c2ccccc2)c2nc3ccccc3[nH]2)cc1 (stereo partly drawn) [Example 197, 1-((R)-1-(1H-Benzo[d]imidazol-2-yl)-2-(4-methoxyphenyl)ethyl)-3-(2-phenylpropyl)urea]
299 nM	COc1ccc(C[C@@H](NC(=O)NCc2ccccc2OC(F)F)c2nc3ccccc3[nH]2)cc1 [Example 198, (R)-1-(1-(1H-Benzo[d]imidazol-2-yl)-2-(4-methoxyphenyl)ethyl)-3-(2-(difluoromethoxy)benzyl)urea]
81 nM	COc1ccc(C[C@@H](NC(=O)NCc2ccccc2CN(C)C)c2nc3ccccc3[nH]2)cc1 [Example 199, (R)-1-(1-(1H-Benzo[d]imidazol-2-yl)-2-(4-methoxyphenyl)ethyl)-3-(2-((dimethylamino)methyl)benzyl)urea]
53 nM	COC[C@@H](NC(=O)N[C@H](Cc1ccc(OC)cc1)c1nc2ccccc2[nH]1)c1ccccc1 [Example 200, 1-((R)-1-(1H-Benzo[d]imidazol-2-yl)-2-(4-methoxyphenyl)ethyl)-3-((S)-2-methoxy-1-phenylethyl)urea]
